Results as given in ChEMBL document CHEMBL4007451, “The 2014 Philip S. Portoghese Medicinal Chemistry Lectureship: The "Phenylalkylaminome" with a Focus on Selected Drugs of Abuse” (J Med Chem, 2017).
pEC50, pIC50, pKi: −log10 of the molar value.

How the values were obtained:
Rattus norvegicus [1] = organism: Rattus norvegicus; test: Induction of stimulus generalization in Sprague-Dawley rat trained to discriminate TDIQ assessed as appropriate responding level to training drug by two lever method; assay type: functional
Rattus norvegicus [2] = organism: Rattus norvegicus; test: Induction of stimulus generalization in Sprague-Dawley rat trained to discriminate S(+)AMPH assessed as appropriate responding level to training drug by two lever method; assay type: functional
Rattus norvegicus [3] = organism: Rattus norvegicus; test: Induction of stimulus generalization in rat trained to discriminate S(+)methamphetamine assessed as appropriate responding level to training drug by two lever method; assay type: functional
Rattus norvegicus [4] = organism: Rattus norvegicus; test: Induction of stimulus generalization in Sprague-Dawley rat trained to discriminate S(-)MCAT assessed as appropriate responding level to training drug by two lever method; assay type: functional
[5] = target: Sodium-dependent dopamine transporter (Rattus norvegicus, UniProt P23977); test: Inhibition of DAT in Sprague-Dawley rat synaptosomes assessed as reduction in [3H]dopamine uptake by liquid scintillation counting method; assay type: subcellular
[6] = target: 5-hydroxytryptamine receptor 6 (Homo sapiens, UniProt P50406); test: Displacement of [3H]LSD from human 5HT6 receptor expressed in HEK293 cells; assay type: cell-based
[7] = target: T1, Alpha-2A adrenergic receptor (Homo sapiens, UniProt P08913); test: Binding affinity to alpha-2A receptor (unknown origin)
T1 sequence (P08913 whole entry): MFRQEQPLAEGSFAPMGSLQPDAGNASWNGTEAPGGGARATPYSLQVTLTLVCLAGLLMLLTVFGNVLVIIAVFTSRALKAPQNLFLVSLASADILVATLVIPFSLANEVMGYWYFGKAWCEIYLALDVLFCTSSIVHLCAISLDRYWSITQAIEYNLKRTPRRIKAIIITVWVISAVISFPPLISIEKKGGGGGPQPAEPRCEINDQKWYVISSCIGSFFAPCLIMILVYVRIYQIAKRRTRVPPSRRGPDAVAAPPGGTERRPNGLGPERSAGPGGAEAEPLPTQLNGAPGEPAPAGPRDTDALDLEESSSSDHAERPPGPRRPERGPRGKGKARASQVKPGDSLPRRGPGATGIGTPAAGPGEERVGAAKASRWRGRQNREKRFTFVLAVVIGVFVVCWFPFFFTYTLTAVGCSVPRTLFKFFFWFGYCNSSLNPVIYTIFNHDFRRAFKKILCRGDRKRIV

Mus musculus = test: Anxiolytic-like activity in iv dosed ICR mouse assessed as increase in marbles left uncovered measured after 30 mins by marble burying assay; assay type: functional; settings: 0.5 h
[8] = target: T2, Alpha-2C adrenergic receptor (Homo sapiens, UniProt P18825); test: Binding affinity to alpha-2C receptor (unknown origin)
T2 sequence (P18825 whole entry): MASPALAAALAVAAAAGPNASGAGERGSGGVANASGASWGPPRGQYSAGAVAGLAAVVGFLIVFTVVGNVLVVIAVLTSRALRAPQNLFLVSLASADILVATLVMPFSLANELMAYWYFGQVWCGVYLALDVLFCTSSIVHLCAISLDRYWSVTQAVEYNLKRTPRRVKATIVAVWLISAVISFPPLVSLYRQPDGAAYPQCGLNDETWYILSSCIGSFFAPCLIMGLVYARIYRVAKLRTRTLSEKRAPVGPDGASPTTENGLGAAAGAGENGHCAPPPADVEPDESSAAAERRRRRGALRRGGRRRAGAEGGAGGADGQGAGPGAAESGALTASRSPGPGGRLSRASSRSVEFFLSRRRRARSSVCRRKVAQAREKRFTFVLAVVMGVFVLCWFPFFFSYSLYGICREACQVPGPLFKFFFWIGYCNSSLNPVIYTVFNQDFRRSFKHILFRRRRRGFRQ

[9] = target: T3, Alpha-2B adrenergic receptor (Homo sapiens, UniProt P18089); test: Binding affinity to alpha-2B receptor (unknown origin)
T3 sequence (P18089 whole entry): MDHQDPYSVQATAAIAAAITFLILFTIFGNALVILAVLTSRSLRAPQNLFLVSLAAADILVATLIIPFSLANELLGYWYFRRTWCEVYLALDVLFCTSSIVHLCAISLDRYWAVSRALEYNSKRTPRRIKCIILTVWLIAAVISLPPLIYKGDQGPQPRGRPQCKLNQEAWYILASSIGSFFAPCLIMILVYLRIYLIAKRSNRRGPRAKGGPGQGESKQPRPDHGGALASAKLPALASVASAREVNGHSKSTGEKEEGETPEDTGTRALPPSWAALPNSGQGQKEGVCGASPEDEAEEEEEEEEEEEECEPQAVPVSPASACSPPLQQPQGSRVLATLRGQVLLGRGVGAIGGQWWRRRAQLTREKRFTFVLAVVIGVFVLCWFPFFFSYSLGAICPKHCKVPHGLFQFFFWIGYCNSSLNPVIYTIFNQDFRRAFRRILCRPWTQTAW

[10] = target: T4, 5-hydroxytryptamine receptor 1A (Homo sapiens, UniProt P08908); test: Binding affinity to 5-HT1A receptor (unknown origin)
T4 sequence (P08908 whole entry): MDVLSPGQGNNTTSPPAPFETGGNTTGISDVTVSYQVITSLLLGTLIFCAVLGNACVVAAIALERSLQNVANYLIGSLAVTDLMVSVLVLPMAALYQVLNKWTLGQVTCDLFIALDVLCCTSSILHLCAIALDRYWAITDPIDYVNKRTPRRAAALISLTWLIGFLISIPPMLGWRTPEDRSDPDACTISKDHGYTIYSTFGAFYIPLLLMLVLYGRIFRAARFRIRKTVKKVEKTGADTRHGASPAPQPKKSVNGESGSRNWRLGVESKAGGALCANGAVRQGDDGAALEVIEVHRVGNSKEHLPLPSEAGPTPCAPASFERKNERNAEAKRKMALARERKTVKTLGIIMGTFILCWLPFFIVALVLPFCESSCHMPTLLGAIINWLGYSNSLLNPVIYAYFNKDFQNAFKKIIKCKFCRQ

[11] = target: T5, 5-hydroxytryptamine receptor 2A (Rattus norvegicus, UniProt P14842); test: Displacement of [125I]DOI from rat cortex 5HT2A after 1 hr by beta scintillation counting method
Rhesus monkey = test: In vivo agonist activity at 5HT2A in DOM-trained rhesus monkey assessed as increase in discriminative stimulus administered subcutaneously pretreated before testing; assay type: functional; settings: Macaca mulatta, sc
Rattus norvegicus [12] = test: In vivo agonist activity at 5HT2A in ip dosed DOM-trained Sprague-Dawley rat assessed as increase in discriminative stimulus pretreated before testing; assay type: functional
[13] = target: T5, 5-hydroxytryptamine receptor 2A; test: Displacement of [3H]ketanserin from 5HT2A in Sprague-Dawley rat cortex membranes measured after 15 mins; assay type: cell membranes
[14] = target: Trace amine-associated receptor 1 (Rattus norvegicus, UniProt Q923Y9); test: Agonist activity at rat N-terminal FLAG-tagged TAAR1 expressed in HEK293 cells assessed as [3H]cAMP accumulation measured after 1 hr; assay type: functional, cell-based
Sequence of Trace amine-associated receptor 1 (Q923Y9 whole entry): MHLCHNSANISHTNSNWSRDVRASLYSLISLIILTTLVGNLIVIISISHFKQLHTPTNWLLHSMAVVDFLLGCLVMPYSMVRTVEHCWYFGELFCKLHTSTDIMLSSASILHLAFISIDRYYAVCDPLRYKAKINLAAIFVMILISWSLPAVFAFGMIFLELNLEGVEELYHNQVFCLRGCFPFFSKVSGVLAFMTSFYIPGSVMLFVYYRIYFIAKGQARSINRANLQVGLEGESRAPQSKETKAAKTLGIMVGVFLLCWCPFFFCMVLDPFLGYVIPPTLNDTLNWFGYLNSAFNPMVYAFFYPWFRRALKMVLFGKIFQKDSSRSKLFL

Sequence of 5-hydroxytryptamine receptor 6 (P50406 whole entry): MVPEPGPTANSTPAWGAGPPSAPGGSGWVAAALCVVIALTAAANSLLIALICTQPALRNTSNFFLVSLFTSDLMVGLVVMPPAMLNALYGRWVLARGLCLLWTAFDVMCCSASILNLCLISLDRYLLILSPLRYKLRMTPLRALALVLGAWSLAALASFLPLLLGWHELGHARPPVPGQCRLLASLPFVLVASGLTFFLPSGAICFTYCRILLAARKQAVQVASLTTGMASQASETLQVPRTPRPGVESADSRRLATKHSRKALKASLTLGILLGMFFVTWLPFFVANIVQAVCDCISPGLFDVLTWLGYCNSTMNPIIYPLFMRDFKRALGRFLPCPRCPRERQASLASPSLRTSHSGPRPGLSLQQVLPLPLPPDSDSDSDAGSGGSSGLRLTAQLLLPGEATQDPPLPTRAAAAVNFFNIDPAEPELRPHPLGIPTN
T5 sequence (P14842 whole entry): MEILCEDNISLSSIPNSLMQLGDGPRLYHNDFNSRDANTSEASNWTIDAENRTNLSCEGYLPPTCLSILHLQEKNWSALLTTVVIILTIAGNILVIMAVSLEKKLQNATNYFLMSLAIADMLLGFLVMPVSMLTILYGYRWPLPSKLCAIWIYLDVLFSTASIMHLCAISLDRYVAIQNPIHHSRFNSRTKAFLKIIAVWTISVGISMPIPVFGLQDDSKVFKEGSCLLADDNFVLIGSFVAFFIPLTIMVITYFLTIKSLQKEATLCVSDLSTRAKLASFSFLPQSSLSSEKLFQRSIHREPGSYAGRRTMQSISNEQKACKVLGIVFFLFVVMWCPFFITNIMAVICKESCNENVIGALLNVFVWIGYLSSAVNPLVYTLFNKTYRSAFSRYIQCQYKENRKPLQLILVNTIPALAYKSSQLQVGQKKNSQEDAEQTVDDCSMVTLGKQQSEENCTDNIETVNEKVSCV
Sequence of Sodium-dependent dopamine transporter (P23977 whole entry): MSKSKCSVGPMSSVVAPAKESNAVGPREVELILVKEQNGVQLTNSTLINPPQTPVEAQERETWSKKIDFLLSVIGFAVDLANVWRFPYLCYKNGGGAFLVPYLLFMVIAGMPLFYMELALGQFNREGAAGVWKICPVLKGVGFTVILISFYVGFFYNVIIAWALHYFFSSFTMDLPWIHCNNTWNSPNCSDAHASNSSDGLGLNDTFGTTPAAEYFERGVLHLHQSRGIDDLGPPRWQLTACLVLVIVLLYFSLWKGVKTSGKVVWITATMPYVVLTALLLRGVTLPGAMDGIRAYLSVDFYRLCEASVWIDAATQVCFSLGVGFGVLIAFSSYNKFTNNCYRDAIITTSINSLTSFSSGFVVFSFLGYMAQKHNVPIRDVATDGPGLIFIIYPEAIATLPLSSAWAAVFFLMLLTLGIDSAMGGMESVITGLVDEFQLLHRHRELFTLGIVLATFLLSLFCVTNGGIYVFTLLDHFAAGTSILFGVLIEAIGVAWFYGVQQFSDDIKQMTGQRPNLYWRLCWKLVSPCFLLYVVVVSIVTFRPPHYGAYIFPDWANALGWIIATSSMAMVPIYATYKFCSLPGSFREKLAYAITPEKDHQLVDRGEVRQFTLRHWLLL

How did the ED50 (Rattus norvegicus [1]) turn out when `COC(=O)[C@H]1[C@@H](OC(=O)c2ccccc2)C[C@@H]2CC[C@H]1N2C` [COCAINE] was run?
Its ED50 is 1.5 mg/kg.

And the ED50 (Rattus norvegicus [2])?
The ED50 was 5.63 mg/kg.

And the ED50 (Rattus norvegicus [3])?
Its ED50 is 3.68 to 6.68 mg/kg.

And the ED50 (Rattus norvegicus [4])?
The ED50 was 1.47 mg/kg.

`CCC[C@@H](C(=O)c1ccc2c(c1)OCO2)N1CCCC1` was tested. Which pIC50 [5] did it give?
The pIC50 was 8.68.

`NC1CCc2c(cccc2NS(=O)(=O)c2ccccc2)C1` (stereo not drawn) was tested. Which pKi [6] did it give?
The pKi was 7.31.

`c1c2c(cc3c1OCO3)CNCC2` was tested. Which pKi [7] did it give?
The pKi was over 7.00.

What about the ED50 (Mus musculus) of the same compound?
Its ED50 is 0.2 mg/kg.

And the pKi [8]?
Its pKi is over 7.00.

What about the pKi [9] of the same compound?
Its pKi is over 7.00.

With `CCCN(CCC)CCc1ccccc1O` as the compound, how does the pKi [10] read?
The pKi was 6.40.

`CCCNCCc1ccccc1O` was tested. Which pKi [10] did it give?
Its pKi is under 6.00.

How did the pKi [11] turn out when `C[C@H](N)Cn1ncc2ccc3c(c21)CCCO3` was run?
Its pKi is 9.89.

And the ED50 (Rhesus monkey)?
The ED50 was 0.04 mg/kg.

What about the ED50 (Rattus norvegicus [12]) of the same compound?
Its ED50 is 0.05 mg/kg.

With `COc1cc(CC(C)N(C)C)c(OC)cc1Br` (stereo not drawn) as the compound, how does the pKi [13] read?
Its pKi is 6.42.

How did the pKi [6] turn out when `NCCc1ccc(S(=O)(=O)n2ccc3ccccc32)cc1` was run?
The pKi was 8.60.

`NCCc1ccccc1` [PHENETHYLAMINE] was tested. Which pEC50 [14] did it give?
Its pEC50 is 6.62.
